Molecular target: OXA-23 (Acinetobacter baumannii, UniProt Q9L4P2)
Test: X-ray crystal structures (seven soak time points); Ki by nitrocefin competition kinetics with purified enzyme
Assay type: biochemical
Text: X-ray crystal structures (seven soak time points); Ki by nitrocefin competition kinetics with purified enzyme on OXA-23 | The compound is covalently attached to the Ser79 side chain and anchored by six hydrogen bonds.

Chain of OXA-23 (Q9L4P2 18-273): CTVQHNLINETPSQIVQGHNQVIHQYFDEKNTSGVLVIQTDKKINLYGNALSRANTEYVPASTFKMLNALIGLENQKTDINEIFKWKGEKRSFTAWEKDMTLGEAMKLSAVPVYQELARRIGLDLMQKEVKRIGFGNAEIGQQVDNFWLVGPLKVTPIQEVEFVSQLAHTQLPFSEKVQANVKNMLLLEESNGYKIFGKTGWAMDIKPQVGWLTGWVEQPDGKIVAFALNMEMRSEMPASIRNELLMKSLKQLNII

CN(C)C(=O)[C@@H]1C[C@H](SC2=C(C(=O)O)N3C(=O)[C@H](CO)[C@H]3C2)CN1 [MA-1-206]
Ki: 26 ± 2 nM

From publication PMC9239083, “C6 Hydroxymethyl-Substituted Carbapenem MA-1-206 Inhibits the Major Acinetobacter baumannii Carbapenemase OXA-23 by Impeding Deacylation” (mBio, 2022)
